# Assay: Activity against thromboxane A2 receptor evaluated by aggregation of human platelets
row,EC50 [nM],SMILES
1,24,"CCCCCC(O)/C=C/[C@@H]1[C@@H](C/C=C\CCCC(=O)O)[C@@H]2C[C@H]1OC(=O)O2 (stereo partly drawn) [(Z)-7-[(1R,5S,6R,7R)-7-((E)-3-Hydroxy-oct-1-enyl)-3-oxo-2,4-dioxa-bicyclo[3.2.1]oct-6-yl]-hept-5-enoic acid]"
2,3110,"CCCCCC(O)/C=C/[C@@H]1[C@@H](C/C=C\CCCC(N)=O)[C@@H]2C[C@H]1OC(=O)O2 (stereo partly drawn) [(Z)-7-[(1R,5S,6R,7R)-7-((E)-3-Hydroxy-oct-1-enyl)-3-oxo-2,4-dioxa-bicyclo[3.2.1]oct-6-yl]-hept-5-enoic acid amide]"

# Reference: BindingDB's records for doi:10.1016/S0960-894X(01)80110-4 (1994)
